This passage reports IC50 results from patent US20120264735A1 (priority 2009, published 2012).

The target of the test is T1, c-Met kinase (recombinant c-Met) (Homo sapiens, UniProt P08581).
T1 construct: 0.27 nM recombinant c-Met
T1 sequence (P08581 25-1390): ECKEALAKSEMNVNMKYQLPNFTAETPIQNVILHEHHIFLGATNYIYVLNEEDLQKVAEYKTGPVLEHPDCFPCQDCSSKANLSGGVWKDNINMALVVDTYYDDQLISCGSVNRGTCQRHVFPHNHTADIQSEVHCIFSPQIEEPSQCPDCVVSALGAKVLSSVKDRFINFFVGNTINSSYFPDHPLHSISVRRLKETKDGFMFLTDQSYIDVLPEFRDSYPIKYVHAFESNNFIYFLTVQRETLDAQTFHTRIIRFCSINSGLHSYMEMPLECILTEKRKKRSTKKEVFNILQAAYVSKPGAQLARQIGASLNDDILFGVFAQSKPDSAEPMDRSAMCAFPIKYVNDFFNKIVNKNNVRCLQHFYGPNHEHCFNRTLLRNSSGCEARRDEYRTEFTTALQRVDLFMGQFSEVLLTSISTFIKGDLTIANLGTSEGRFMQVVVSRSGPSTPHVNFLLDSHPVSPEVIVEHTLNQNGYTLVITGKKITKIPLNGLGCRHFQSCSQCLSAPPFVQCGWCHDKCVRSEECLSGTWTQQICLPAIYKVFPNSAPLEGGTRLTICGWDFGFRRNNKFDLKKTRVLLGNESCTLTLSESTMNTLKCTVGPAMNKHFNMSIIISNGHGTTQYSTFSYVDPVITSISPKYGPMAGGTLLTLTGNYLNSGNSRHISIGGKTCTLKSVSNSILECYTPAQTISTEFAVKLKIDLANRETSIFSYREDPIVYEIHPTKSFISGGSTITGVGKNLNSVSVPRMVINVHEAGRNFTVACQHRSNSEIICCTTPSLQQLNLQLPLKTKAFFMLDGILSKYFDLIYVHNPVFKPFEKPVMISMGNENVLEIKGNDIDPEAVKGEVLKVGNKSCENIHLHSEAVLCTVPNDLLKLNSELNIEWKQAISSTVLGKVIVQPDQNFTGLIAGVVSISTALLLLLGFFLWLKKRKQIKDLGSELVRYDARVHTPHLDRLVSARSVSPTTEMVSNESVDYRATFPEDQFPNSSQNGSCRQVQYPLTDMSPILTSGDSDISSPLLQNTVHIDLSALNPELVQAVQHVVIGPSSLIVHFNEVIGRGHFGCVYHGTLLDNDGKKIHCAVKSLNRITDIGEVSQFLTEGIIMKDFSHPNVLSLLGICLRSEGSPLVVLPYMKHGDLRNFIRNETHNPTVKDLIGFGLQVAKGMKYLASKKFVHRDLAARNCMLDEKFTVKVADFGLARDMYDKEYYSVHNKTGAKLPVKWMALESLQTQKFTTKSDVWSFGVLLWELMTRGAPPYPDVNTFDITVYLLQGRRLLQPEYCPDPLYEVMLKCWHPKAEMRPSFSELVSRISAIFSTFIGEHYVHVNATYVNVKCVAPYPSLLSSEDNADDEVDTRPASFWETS
As to the kind of experiment: In vitro kinase assay I (homogeneous time-resolved fluorescence tyrosine kinase assay). It counts as biochemical. The method in brief:
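Biotinylated peptide (0.5 μM) phosphorylated by 0.2 nM recombinant c-Met with 50 μM MgATP, 60 min at room temperature, pH 7.4, 5% DMSO. EDTA stop; HTRF read with Eu-anti-phosphotyrosine antibody and streptavidin-APC. IC50 from 4-parameter logistic fit.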
One may read the IC50 as the midpoint of a concentration-inhibition curve. As for `CCC(C)COC(=O)Nc1cccc(Cc2nn(-c3cnn(C)c3)ccc2=O)c1` (racemic) [Example 573, rac-2-methylbutyl (3-{[1-(1-methyl-1H-pyrazol-4-yl)-4-oxo-1,4-dihydropyridazin-3-yl]methyl}phenyl)carbamate], the 50% inhibitory concentration (IC50) is < 100 nM.

Consider `CC(c1cccc(-c2ncc(OC(C)C(C)(C)O)cn2)c1)c1nn(-c2cnn(C)c2)ccc1=O` (single isomer, unassigned) [Example 382, 3-{(1R or S)-1-[3-(5-{[(1R or S)-2-hydroxy-1,2-dimethylpropyl]oxy}pyrimidin-2-yl)phenyl]ethyl}-1-(1-methyl-1H-pyrazol-4-yl)pyridazin-4(1H)-one], for which the IC50 was < 100 nM.

Turning to `CCn1cc(-n2ccc(=O)c(C(C)c3cccc(-c4ncc(-c5cnn(C)c5)cn4)c3)n2)cn1` (single isomer, unassigned) [Example 235, 1-(1-ethyl-1H-pyrazol-4-yl)-3-[(1R or S)-1-{3-[5-(1-methyl-1H-pyrazol-4-yl)pyrimidin-2-yl]phenyl}ethyl]pyridazin-4(1H)-one], the half-inhibitory concentration (IC50) was < 100 nM.

For `COCCCc1cnc(-c2cccc(Cc3nn(-c4cnn(C)c4)ccc3=O)c2)nc1` [Example 439, 3-{3-[5-(3-methoxypropyl)pyrimidin-2-yl]benzyl}-1-(1-methyl-1H-pyrazol-4-yl)pyridazin-4(1H)-one], the IC50 was < 100 nM.

Take `Cn1cc(-n2ccc(=O)c(Cc3cccc(-c4ncc(-c5cnoc5)cn4)c3)n2)cn1` [Example 423, 3-[3-(5-isoxazol-4-ylpyrimidin-2-yl)benzyl]-1-(1-methyl-1H-pyrazol-4-yl)pyridazin-4(1H)-one]: the IC50 was < 100 nM.

Take `CCOC(=O)Nc1cccc(Cc2nn(-c3cccc(OC)c3)ccc2=O)c1` [Example 649, Ethyl(3-{[1-(3-methoxyphenyl)-4-oxo-1,4-dihydropyridazin-3-yl]methyl}phenyl)carbamate]: the IC50 fell in the range of 100 to 1000 nM.

Regarding `CC1CCCN(c2cnc(-c3cccc(Cc4nn(-c5cnn(C)c5)ccc4=O)c3)nc2)C1` (racemic) [Example 469, rac-3-{3-[5-(3-methyl-piperidin-1-yl)pyrimidin-2-yl]benzyl}-1-(1-methyl-1H-pyrazol-4-yl)pyridazin-4(1H)-one], the IC50 is < 100 nM.

Regarding `CCOc1cnc(-c2cccc(Cc3nn(-c4cnn(C5CNC5)c4)ccc3=O)c2)nc1` [Example 663, 1-(1-Azetidin-3-yl-1H-pyrazol-4-yl)-3-[3-(5-ethoxypyrimidin-2-yl)benzyl]pyridazin-4(1H)-one], the IC50 was < 100 nM.

As to `N#Cc1cccc(-n2ccc(=O)c(Cc3cccc(NC(=O)OCCC4CCOCC4)c3)n2)c1` [Example 598, 2-(tetrahydro-2H-pyran-4-yl)ethyl (3-{[1-(3-cyanophenyl)-4-oxo-1,4-dihydropyridazin-3-yl]methyl}phenyl)carbamate], the IC50 was < 100 nM.

As for `CCCOC(=O)Nc1cccc(Cc2nn(-c3cnn(C4CCOC4)c3)ccc2=O)c1` (racemic) [Example 98, rac-propyl [3-({4-oxo-1-[1-(tetrahydrofuran-3-yl)-1H-pyrazol-4-yl]-1,4-dihydropyridazin-3-yl}methyl)phenyl]carbamate], the half-maximal inhibitory concentration (IC50) was < 100 nM.

As for `COCCOc1cnc(-c2cccc(C(C)c3nn(-c4cnn(C)c4)ccc3=O)c2)nc1` (single isomer, unassigned) [Example 223, 3-((1R or S)-1-{3-[5-(2-methoxyethoxy)pyrimidin-2-yl]phenyl}ethyl)-1-(1-methyl-1H-pyrazol-4-yl)pyridazin-4(1H)-one], the half-maximal inhibitory concentration (IC50) is < 100 nM.

Regarding `CCOC(=O)Nc1cccc(Cc2nn(-c3cccc(C#N)c3)ccc2=O)c1` [Example 135, ethyl (3-{[1-(3-cyanophenyl)-4-oxo-1,4-dihydropyridazin-3-yl]methyl}phenyl)carbamate], the IC50 is < 100 nM.

As to `Cn1cc(-n2ccc(=O)c(Cc3cccc(-c4ncc(OCc5ccccn5)cn4)c3)n2)cn1` [Example 354, 1-(1-methyl-1H-pyrazol-4-yl)-3-{3-[5-(pyridin-2-ylmethoxy)pyrimidin-2-yl]benzyl}pyridazin-4(1H)-one], the concentration for half-maximal inhibition (IC50) is < 100 nM.

For `COCCOC(=O)Nc1cccc(Cc2nn(-c3cncc(C#N)c3)ccc2=O)c1` [Example 129, 2-methoxyethyl (3-{[1-(5-cyanopyridin-3-yl)-4-oxo-1,4-dihydropyridazin-3-yl]methyl}phenyl)carbamate], the half-maximal inhibitory concentration (IC50) was < 100 nM.

In the case of `COCCc1nc(-c2cccc(Cc3nn(-c4cnn(C)c4)ccc3=O)c2)no1` [Example 744, 3-{3-[5-(2-methoxyethyl)-1,2,4-oxadiazol-3-yl]benzyl}-1-(1-methyl-1H-pyrazol-4-yl)pyridazin-4(1H)-one], the IC50 lay within 100 to 1000 nM.

Take `CCn1cc(-n2ccc(=O)c(Cc3cccc(-c4ncc(OCc5cc(C)no5)cn4)c3)n2)cn1` [Example 313, 1-(1-ethyl-1H-pyrazol-4-yl)-3-(3-{5-[(3-methylisoxazol-5-yl)methoxy]primidin-2-yl}benzyl)pyridazin-4(1H)-one]: the IC50 was < 100 nM.

In the case of `Cn1cc(-n2ccc(=O)c(Cc3cccc(NC(=O)OCC4CCCCC4)c3)n2)cn1` [Example 540, cyclohexylmethyl (3-{[1-(1-methyl-1H-pyrazol-4-yl)-4-oxo-1,4-dihydropyridazin-3-yl]methyl}phenyl)carbamate], the IC50 was < 100 nM.

On to `CCOc1cnc(-c2cccc(Cc3nn(-c4cccc(F)c4)ccc3=O)c2)nc1` [Example 725, 3-(3-(5-Ethoxypyrimidin-2-yl)benzyl)-1-(3-fluorophenyl)pyridazin-4(1H)-one], for which the 50% inhibitory concentration (IC50) was < 100 nM.

On to `CC(c1cccc(-c2ncc(C3CC3)cn2)c1)c1nn(-c2cnn(C)c2)ccc1=O` (single isomer, unassigned) [Example 406, 3-{(1R or S)-1-[3-(5-cyclopropyl-pyrimidin-2-yl)phenyl]ethyl}-1-(1-methyl-1H-pyrazol-4-yl)pyridazin-4(1H)-one], for which the IC50 was < 100 nM.

In the case of `CNCCOC(=O)Nc1cccc(Cc2nn(-c3cc(F)c(F)c(F)c3)ccc2=O)c1` [Example 622, 2-(methylamino)ethyl (3-{[4-oxo-1-(3,4,5-trifluorophenyl)-1,4-dihydropyridazin-3-yl]methyl}phenyl)carbamate], the IC50 was < 100 nM.

As for `Cn1cc(-n2ccc(=O)c(Cc3cccc(-c4ncc(/C=C/C(C)(C)O)cn4)c3)n2)cn1` [Example 401, 3-(3-{5-[(1E)-3-hydroxy-3-methylbut-1-en-1-yl]pyrimidin-2-yl}benzyl)-1-(1-methyl-1H-pyrazol-4-yl)pyridazin-4(1H)-one], the IC50 was < 100 nM.

Turning to `O=C(Nc1cccc(Cc2nn(-c3cc(F)cc(F)c3)ccc2=O)c1)OCCN1CCNCC1` [Example 628, 2-piperazin-1-ylethyl (3-{[1-(3,5-difluorophenyl)-4-oxo-1,4-dihydropyridazin-3-yl]methyl}phenyl)carbamate], the IC50 is < 100 nM.

As to `CCn1cc(-n2ccc(=O)c(C(C)c3cccc(-c4ncc(O)cn4)c3)n2)cn1` (single isomer, unassigned) [Example 257, 1-(1-ethyl-1H-pyrazol-4-yl)-3-{(1S or R)-1-[3-(5-hydroxypyrimidin-2-yl)phenyl]ethyl}pyridazin-4(1H)-one], the IC50 lay within 1000 to 3000 nM.

Take `CN1CCN(CCCOC(=O)Nc2cccc(Cc3nn(-c4cc(F)c(F)c(F)c4)ccc3=O)c2)CC1` [Example 511, 3-(4-methylpiperazin-1-yl)propyl(3-{[4-oxo-1-(3,4,5-trifluorophenyl)-1,4-dihydropyridazin-3-yl]methyl}phenyl)carbamate]: the IC50 is < 100 nM.

As for `Cn1cc(-n2ccc(=O)c(Cc3cccc(-c4ncc(N5CCN(C(=O)OC(C)(C)C)CC5)cn4)c3)n2)cn1` [Example 471, tert-butyl 4-[2-(3-{[1-(1-methyl-1H-pyrazol-4-yl)-4-oxo-1,4-dihydro-pyridazin-3-yl]methyl}phenyl)pyrimidin-5-yl]piperazine-1-carboxylate], the IC50 is < 100 nM.

Regarding `CCCn1cc(-n2ccc(=O)c(Cc3cccc(NC(=O)OCC)c3)n2)cn1` [Example 112, ethyl (3-{[4-oxo-1-(1-propyl-1H-pyrazol-4-yl)-1,4-dihydropyridazin-3-yl]methyl}phenyl)carbamate], the concentration for half-maximal inhibition (IC50) was < 100 nM.

`Cn1cc(-n2ccc(=O)c(Cc3cccc(-c4ncn(C5COC5)n4)c3)n2)cn1` [Example 707, 1-(1-Methyl-1H-pyrazol-4-yl)-3-{3-[1-(oxetan-3-yl)-1H-1,2,4-triazol-3-yl]benzyl}pyridazin-4(1H)-one]: the IC50 fell in the range of 100 to 1000 nM.

For `Cn1cc(-n2ccc(=O)c(Cc3cccc(-c4ncc(OCC(O)c5ccncc5)cn4)c3)n2)cn1` (racemic) [Example 367, rac-3-(3-{5-[2-hydroxy-2-(pyridin-4-yl)ethoxy]pyrimidin-2-yl}benzyl)-1-(1-methyl-1H-pyrazol-4-yl)pyridazin-4(1H)-one], the IC50 was < 100 nM.

On to `COCCOc1cnc(-c2cccc(Cc3nn(-c4ccc(C#N)cc4)ccc3=O)c2)nc1` [Example 138, 4-[3-{3-[5-(2-methoxyethoxy)pyrimidin-2-yl]benzyl}-4-oxopyridazin-1(4H)-yl]benzonitrile], for which the IC50 was < 100 nM.

For `Cn1cc(-n2ccc(=O)c(Cc3cccc(NC(=O)NC4CC4)c3)n2)cn1` [Example 492, 1-cyclopropyl-3-(3-{[1-(1-methyl-1H-pyrazol-4-yl)-4-oxo-1,4-dihydropyridazin-3-yl]methyl}phenyl)urea], the IC50 was 100 to 1000 nM.

As to `CC(C)COC(=O)Nc1cccc(Cc2nn(-c3cnn(CCCC(=O)O)c3)ccc2=O)c1` [Example 180, 4-{4-[3-(3-{[(2-methylpropoxy)carbonyl]amino}benzyl)-4-oxopyridazin-1(4H)-yl]-1H-pyrazol-1-yl}butanoic acid], the IC50 is < 100 nM.

With `Cn1cc(-n2ccc(=O)c(Cc3cccc(-c4ncn(CCc5ccccc5)n4)c3)n2)cn1` [Example 715, 1-(1-methyl-1H-pyrazol-4-yl)-3-{3-[1-(2-phenylethyl)-1H-1,2,4-triazol-3-yl]benzyl}pyridazin-4(1H)-one], the IC50 lay in the range of 100 to 1000 nM.
